# Source: US20250179059A1 (The Regents of the University of California, priority 2021, published 2025)
# Like-named read-outs stand apart in the source and are kept apart here.
# Legend:
# [1] = tested on: human SKM-1 acute myeloid leukemia cells; test: SKM-1 antiproliferation cell-based assay (ATPlite); conditions: Homo sapiens
# Protocol: The cell-based assay indirectly measures cell density (and therefore proliferation and/or survival) by detecting total ATP concentration in a homogeneous format. Briefly, human SKM-1 acute myeloid leukemia cells (Leibniz Institute DSMZ #ACC 547) proliferating in log phase are collected by centrifugation, re-suspended in culture media (RPMI 1640/15% FBS/100 U/mL penicillin/100 μg/mL streptomycin) and diluted to 34722 cells/mL in media after counting. Then 180 μL cells are plated per well into a 96-well tissue-culture treated, clear bottom plate (Coming #3603). A 96-well compound plate (Corning #3357) is then generated by serial dilution of compounds into DMSO over nine concentrations and adding separate negative (DMSO) and positive control (reference compound) wells. Each compound concentration is tested in triplicate. First, 1 μL from each well of the compound plate is added to 99 μL culture media in an intermediate plate and mixed by pipetting. Then 20 μL of the diluted compounds in media are added to the assay plate containing the cells. The assay plate is maintained for 4 days in a standard cell culture incubator. At the end of the incubation period, 100 μL ATPlite Istep (PerkinElmer) is added to the assay plate wells, and the resulting luminescence is detected using an Infinite M1000 or a Spark multimode plate reader (Tecan). Data analysis is performed in Prism (GraphPad Software). For curve fitting, a non-linear regression, variable slope equation is used to calculate cellular IC50s.
# [2] = target: T1, human BRD4 bromodomain II (Homo sapiens, UniProt O60885); test: Bromodomain binding assay (AlphaScreen), BRD4 BDII
# T1 construct: human BRD4 bromodomain II [based on Genbank NM_058243, residues 349-460]; host or cells: E. coli
# How it was run: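 First, His6-tagged BRD4 bromodomain (BDI residues 44-170 or BDII residues 349-460) is incubated with compound for 30 min at room temperature. Next the biotinylated H4 peptide is added for 30 min, then donor and acceptor beads, with 60 min in the dark before AlphaScreen reading and IC50 fitting.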
# [3] = SKM-1, 96 h, SKM-1 antiproliferation assay, 4 days, Table C2
# [4] = AlphaScreen assay, Table C2, read-out: BRD4 BDII IC50
# [5] = SKM-1, SKM-1 antiproliferation assay
# [6] = BRD4 BDII AlphaScreen assay, read-out: BRD4 BD2 IC50
Structure (SMILES),"GI50 [1, 3]","IC50 [2, 4]","GI50 [1, 5]","IC50 [2, 6]"
"CN1CCN(c2ccc(-c3cc(F)cc(-c4cnc(C#N)c(N5CCNCC5)c4)c3O)cc2Cl)C1=O [Example 357, 5-(3′-chloro-5-fluoro-2-hydroxy-4′-(3-methyl-2-oxoimidazolidin-1-yl)-[1,1′-biphenyl]-3-yl)-3-(piperazin-1-yl)picolinonitrile]",30 to 300 nM,1 to 10 nM,,
"COc1ncc(-c2nc(C)cc(-c3ccc(-n4ccn(C)c4=O)c(F)c3)c2O)cc1N1CCN(C(C)(C)C)CC1 [Example 997, 1-(4-(5′-(4-(tert-butyl)piperazin-1-yl)-3-hydroxy-6′-methoxy-6-methyl-[2,3′-bipyridin]-4-yl)-2-fluorophenyl)-3-methyl-1H-imidazol-2(3H)-one]",,,0.3 to 30 nM,1 to 10 nM
"Cc1ccc(-c2cc(F)cc(-c3ccc(-n4ccn(C)c4=O)c(Cl)c3)c2O)cc1N1CC(C)(O)C1 [Example 845, 1-(3-chloro-5′-fluoro-2′-hydroxy-3″-(3-hydroxy-3-methylazetidin-1-yl)-4″-methyl-[1,1′:3′,1″-terphenyl]-4-yl)-3-methyl-1H-imidazol-2(3H)-one]",30 to 300 nM,1 to 10 nM,,
"[2H]C([2H])([2H])C(=O)Nc1ccc(-c2cc(C)nc(-c3cccc(N4CCN(C(C)(C)C)CC4)c3)c2O)cc1Cl [Example 1008, N-(4-(2-(3-(4-(tert-butyl)piperazin-1-yl)phenyl)-3-hydroxy-6-methylpyridin-4-yl)-2-chlorophenyl)-2,2,2-trideuteroacetamide]",,,0.3 to 30 nM,1 to 10 nM
"CN1CCN(c2ccc(-c3cc(F)cc(-c4cnc(OCCO)c(N5CCNCC5)c4)c3O)cc2Cl)C1=O [Example 392, 1-(3-chloro-5′-fluoro-2′-hydroxy-3′-(6-(2-hydroxyethoxy)-5-(piperazin-1-yl)pyridin-3-yl)-[1,1′-biphenyl]-4-yl)-3-methylimidazolidin-2-one]",30 to 300 nM,1 to 10 nM,,
"CC(=O)Nc1cc(-c2cc(F)cc(-c3ccc(-n4ccn(C)c4=O)c(Cl)c3)c2O)cc(N2CC[C@H](N(C)C)C2)n1 [Example 515, (S)-N-(4-(3′-chloro-5-fluoro-2-hydroxy-4′-(3-methyl-2-oxo-2,3-dihydro-1H-imidazol-1-yl)-[1,1′-biphenyl]-3-yl)-6-(3-(dimethylamino)pyrrolidin-1-yl)pyridin-2-yl)acetamide]",0.3 to 30 nM,1 to 10 nM,,
"Cc1cc(-c2ccc(-n3ccn(C)c3=O)c(Cl)c2)c(O)c(-c2cnc(N)c(N3CCC4(CCCN4C(C)C)C3)c2)n1 (centres unmarked) [Example 978, 1-(4-(6′-amino-3-hydroxy-5′-(1-isopropyl-1,7-diazaspiro[4.4]nonan-7-yl)-6-methyl-[2,3′-bipyridin]-4-yl)-2-chlorophenyl)-3-methyl-1H-imidazol-2(3H)-one]",,,0.3 to 30 nM,0.01 to 1 nM
"CC1CCN(c2ccc(-c3cccc(-c4ccnc(N5CCNCC5)c4)c3O)cc2Cl)C1=O (centres unmarked) [Example 328, 1-(3-chloro-2′-hydroxy-3′-(2-(piperazin-1-yl)pyridin-4-yl)-[1,1′-biphenyl]-4-yl)-3-methylpyrrolidin-2-one]",300 to 3000 nM,1 to 10 nM,,
"Cc1ncc(-c2cc(F)cc(-c3ccc(-n4ccn(C)c4=O)c(Cl)c3)c2O)cc1N1CC[C@@](C)(O)C1 [Example 825, (R)-1-(3-chloro-5′-fluoro-2′-hydroxy-3′-(5-(3-hydroxy-3-methylpyrrolidin-1-yl)-6-methylpyridin-3-yl)-[1,1′-biphenyl]-4-yl)-3-methyl-1H-imidazol-2(3H)-one]",0.3 to 30 nM,0.01 to 1 nM,,
"Cn1ccn(-c2ccc(-c3cc(F)nc(-c4cccc(N5CCN(C(C)(C)C)CC5)c4)c3O)cc2Cl)c1=O [Example 1029, 1-(4-(2-(3-(4-(tert-Butyl)piperazin-1-yl)phenyl)-6-fluoro-3-hydroxypyridin-4-yl)-2-chlorophenyl)-3-methyl-1H-imidazol-2(3H)-one]",,,0.3 to 30 nM,0.01 to 1 nM
Cn1ccn(-c2ccc(-c3cc(F)cc(-c4ccnc(N5CC(C)(O)C(F)(F)C5)c4)c3O)cc2Cl)c1=O (centres unmarked) [Example 861],,,0.3 to 30 nM,1 to 10 nM
"Cc1ccc(-c2cc(F)cc(-c3ccc(-n4ccn(C)c4=O)c(Cl)c3)c2O)cc1N1CC[C@@](C)(O)C1 [Example 808, (R)-1-(3-chloro-5′-fluoro-2′-hydroxy-3″-(3-hydroxy-3-methylpyrrolidin-1-yl)-4″-methyl-[1,1′:3′,1″-terphenyl]-4-yl)-3-methyl-1H-imidazol-2(3H)-one]",30 to 300 nM,1 to 10 nM,,
"CC(C)N1CCN(c2cc(F)cc(-c3cc(F)cc(-c4ccc(-n5ccn(C)c5=O)c(Cl)c4)c3O)c2)CC1 [Example 713, 1-(3-chloro-3″,5′-difluoro-2′-hydroxy-5″-(4-isopropylpiperazin-1-yl)-[1,1′:3′,1″-terphenyl]-4-yl)-3-methyl-1H-imidazol-2(3H)-one]",0.3 to 30 nM,0.01 to 1 nM,,
"C[C@@H]1CN(c2cc(-c3cc(F)cc(-c4ccc(-n5ccn(C)c5=O)c(Cl)c4)c3O)cc3nccnc23)CCN1 [Example 549, (R)-1-(3-chloro-5′-fluoro-2′-hydroxy-3′-(8-(3-methylpiperazin-1-yl)quinoxalin-6-yl)-[1,1′-biphenyl]-4-yl)-3-methyl-1H-imidazol-2(3H)-one]",0.3 to 30 nM,1 to 10 nM,,
"Cn1ccn(-c2ccc(-c3cc(F)cc(-c4cnc(Cl)c(N5CCN(C(C)(C)C)CC5)c4)c3O)cc2Cl)c1=O [Example 789, 1-(3′-(5-(4-(tert-butyl)piperazin-1-yl)-6-chloropyridin-3-yl)-3-chloro-5′-fluoro-2′-hydroxy-[1,1′-biphenyl]-4-yl)-3-methyl-1H-imidazol-2(3H)-one]",0.3 to 30 nM,1 to 10 nM,,
"Cn1ccn(-c2ccc(-c3cc(F)cc(-c4cc(N5CC[C@H](N)C5)c5cn[nH]c5c4)c3O)cc2Cl)c1=O [Example 558, (S)-1-(3′-(4-(3-aminopyrrolidin-1-yl)-1H-indazol-6-yl)-3-chloro-5′-fluoro-2′-hydroxy-[1,1′-biphenyl]-4-yl)-3-methyl-1H-imidazol-2(3H)-one]",0.3 to 30 nM,1 to 10 nM,,
"[2H]C([2H])([2H])n1ccn(-c2ccc(-c3cc(F)cc(-c4ccnc(N5CCN[C@H](C)C5)c4)c3O)cc2Cl)c1=O [Example 453, (R)-1-(3-chloro-5′-fluoro-2′-hydroxy-3′-(2-(3-methylpiperazin-1-yl)pyridin-4-yl)-[1,1′-biphenyl]-4-yl)-3-deuteromethyl-1H-imidazol-2(3H)-one]",0.3 to 30 nM,0.01 to 1 nM,,
"CO[C@H]1COC(=O)N1c1ccc(-c2cc(F)cc(-c3ccnc(N4CCNCC4)c3)c2O)cc1Cl [Example 506, (S)-3-(3-chloro-5′-fluoro-2′-hydroxy-3′-(2-(piperazin-1-yl)pyridin-4-yl)-[1,1′-biphenyl]-4-yl)-4-methoxyoxazolidin-2-one]",300 to 3000 nM,10 to 100 nM,,
"Cn1ccn(-c2ccc(-c3cc(F)cc(-c4ccc(Cl)c(N5CC[C@@](C)(O)C5)c4)c3O)cc2Cl)c1=O [Example 842, (R)-1-(3,4″-dichloro-5′-fluoro-2′-hydroxy-3″-(3-hydroxy-3-methylpyrrolidin-1-yl)-[1,1′:3′,1″-terphenyl]-4-yl)-3-methyl-1H-imidazol-2(3H)-one]",30 to 300 nM,1 to 10 nM,,
